Experimental data reported in US4515722A, “Phosphatidyl inositol analogs useful as anti-inflammatory/analgesic agents” (Merck & Co., Inc., priority 1982, dated 1985).

Tests used:
[1] = test system: Phosphatidyl inositol-specific phospholipase C; assay: Phosphatidyl inositol-specific phospholipase C assay with sonicated human platelets; type: biochemical
Procedure: A. Protocol--Phosphatidyl inositol-specific phospholipase C assays. The assays were performed as follows: A mixture of PI (Sigma) and (^3 H-inositol)-PI in CHCl3 are blown to dryness under N2 and sonicated into a buffer containing DOC and CaCl2 so that the final concentrations in each 200 λ assay are:
0.5 mg/ml DOC containing an appropriate amount of an active compound
in 50 mM Hepes, 100 mM NaCl, 0.5 mg/ml BSA pH 7.
An aliquot of sonicated human platelets, 5×10^9 /ml, is added; the reaction is stopped after 10 minutes with a chloroform/methanol/H2 O solution and the upper water phase is counted to detect water-soluble inositol counts. The pH was checked during each assay using pH paper to verify that none of the compounds affected this parameter.

phospholipase C = details: background statement; cited from earlier work
[2] = Table II, Concentration 0.20 mM

CCCCCCCCCCCCCCCCCCP(=O)(O)O[C@H]1[C@H](O)[C@@H](O)[C@H](OP(=O)(O)CCCCCCCCCCCCCCCCCC)[C@@H](O)[C@H]1O (relative stereo) [1,4-di(octadecylphosphonyl)-myo-inositol]
% Inhibition ([1]; Table II, Concentration 0.033 mM): 18%
% Inhibition ([1]; Table II, Concentration 0.33 mM): 37%

CCCCCCCCCCCCP(=O)(O)O[C@@H]1[C@H](O)[C@H](O)[C@@H](O)[C@H](O)[C@H]1O (relative stereo) [1-O--(dodecylphosphonyl)-myo-inositol]
% Inhibition [1, 2]: 51%
% Inhibition ([1]; Table II, Concentration 2.0 mM): 82%

CCCCCCCCCCCCCCCCCCP(=O)(O)O[C@@H]1[C@H](O)[C@H](O)[C@@H](O)[C@H](O)[C@H]1O (relative stereo) [1-O--(octadecylphosphonyl)-myo-inositol]
% Inhibition ([1]; Table II, Concentration 0.105 mM): 12%
% Inhibition ([1]; Table II, Concentration 1.05 mM): 66%

CCCCCCCCCCCCCCCCCCP(=O)(O)O[C@H]1[C@H](O)[C@@H](O)[C@H](O)[C@@H](O)[C@]1(O)CO (relative stereo) [DL-2-C--hydroxymethyl-1-O--octadecanephosphonyl-myo-inositol]
% Inhibition ([1]; Table II, Concentration 0.115 mM): 51%
% Inhibition ([1]; Table II, Concentration 1.15 mM): 89%

CCCCCCCCCCCCCCCCCCP(=O)(O)O[C@H]1[C@H](O)[C@@H](O)[C@H](O)[C@@H](O)[C@H]1OC (relative stereo) [DL-2-O--methyl-1-O--(octadecylphosphonyl)-myo-inositol]
% Inhibition ([1]; Table II, Concentration 0.122 mM): 53%
% Inhibition ([1]; Table II, Concentration 1.22 mM): 83%

CCCCCCCCCCCCP(=O)(O)O[C@H]1[C@H](O)[C@@H](O)[C@H](OP(=O)(O)CCCCCCCCCCCC)[C@@H](O)[C@H]1O (relative stereo) [Example 20, 1,4-di-O-(dodecylphosphonyl)myo-inositol]
% Inhibition ([1]; Table II, Concentration 0.043 mM): 20%
% Inhibition ([1]; Table II, Concentration 0.432 mM): 64%

CCCCCCCCCCCCCCCCCCP(=O)(O)OC1C(O)C(O)C(O)C(O)C1O (stereo not shown) [5-O--(octadecylphosphonyl)-myo-inositol]
% Inhibition ([1]; Table II, Concentration 0.050 mM): 27%
% Inhibition [1, 2]: 60%
% Inhibition ([1]; Table II, Concentration 1.00 mM): 81%

CCCCCCCC(=O)OCC(CCP(=O)(OC)OC1C(O)C(O)C(O)C(O)C1O)OC(=O)CCCCCCC (stereo not shown) [(M) (M) CH3]
% Inhibition ([1]; Table I, Conc. 0.5 mM): 50%
% Inhibition ([1]; Table I, Conc. 1.0 mM): 72%

CCCCCCCCCC(=O)OC(CCP(=O)(O)OC1C(O)C(O)C(O)C(O)C1O)COC(=O)Cc1ccc(-c2ccccc2)cc1 (stereo not shown) [.0.-.0.CH2 CO, 3-Decanoyloxy-4-(p-diphenylacetyloxy)-butyl-1-phosphonyl-myo-inositol]
% Inhibition ([1]; Table I, Conc. 0.5 mM): 61%
% Inhibition ([1]; Table I, Conc. 1.0 mM): 75%

CCCCCCCCCC(=O)OC(CCP(=O)(O)OC1C(O)C(O)C(O)C(O)C1O)COC(=O)CCc1ccc(Oc2ccccc2)cc1 (stereo not shown) [.0.O.0.CH2 CH2 CO]
% Inhibition ([1]; Table I, Conc. 0.1 mM): 47%
% Inhibition ([1]; Table I, Conc. 0.5 mM): 66%
% Inhibition ([1]; Table I, Conc. 1.0 mM): 76%

CCCCCCCC(=O)OCC(CCP(=O)(O)OC1C(O)C(O)C(O)C(O)C1O)OC(=O)CCCCCCC (stereo not shown) [n-C7 H15 CO, 3,4-Dioctanoyloxybutyl-1-phosphonyl-myo-inositol]
% Inhibition ([1]; Table I, Conc. 1.0 mM): 64%

CCCCCCCCCC(=O)OCC(CCP(=O)(O)OC1C(O)C(O)C(O)C(O)C1O)OC(=O)CCCCCCCCC (stereo not shown) [n-C9 H19 CO, 3,4-Didecanoyloxybutyl-1-phosphonyl-myo-inositol]
% Inhibition ([1]; Table I, Conc. 1.0 mM): 68%

CCCCCCCCCCCCCCCC(=O)OCC(CCP(=O)(O)OC1C(O)C(O)C(O)C(O)C1O)OC(=O)CCCCCCCCCCCCCCC (stereo not shown) [n-C15 H31 CO, 3,4-Dipalmitoyloxybutyl-1-phosphonyl-myo-inositol]
% Inhibition ([1]; Table I, Conc. 0.05 mM): 37%
% Inhibition ([1]; Table I, Conc. 0.5 mM): 82%
% Inhibition ([1]; Table I, Conc. 1.0 mM): 84%

c1ccc2c(c1)Nc1ccccc1S2 [phenothiazine]
inhibition of phospholipase C (phospholipase C): inhibited
